“Also recorded” adds a separate entry of the source. Like-named read-outs stand apart in the source and are kept apart here. No end group written: not given here.

For data set [1], the system named is thrombotic cerebral infarction PIT model. In words: PIT model: damaged cerebral region by TTC staining. The format is in vivo, mouse. The settings on record: for damaged cerebral region by TTC staining: second Example 13.
The test system is the same in data set [2].
Data set [3] deals with tMCAO model (ischemia for 4 hours), tPA-induced cerebral hemorrhage.
Protocol: Mice were anesthetized with 3% isoflurane (Escain (registered trademark), Mylan Seiyaku Ltd., Tokyo, Japan) (Small animal anesthetizer MK-A100, Muromachi Kikai Co., Ltd., Tokyo, Japan). On a constant-temperature table at 37° C. (Ikemoto Scientific Technology Co., Ltd., Tokyo, Japan), the skin in the pharyngeal region is cut lengthwise into about 2 cm with scissors. The skin was drawn to the right using a hard silk thread (hard No. 8, Natsume Seisakusho Co., Ltd.) to secure a visual field. Using a stereoscopic microscope, the left common carotid artery which is located on the left side of the trachea is secured with a hard silk thread while exfoliating connective tissue, nerves and the like. By following the common carotid artery upward, the artery is separated into the internal carotid artery and the external carotid artery, and the external carotid artery on the left near side is tightly tied at two points with a soft silk thread and the space between the points is cut. A thin vessel extending upward from the internal carotid artery is secured with a soft silk thread. The soft silk thread and hard silk thread are strongly drawn to stop blood flow and an incision is made in the internal carotid artery with scissors. From that, an obturator is inserted 1 to 1.5 cm and the middle cerebral artery is occluded. The internal carotid artery was tied together with the obturator using a soft silk thread to fix the obturator. A soft silk thread is passed under the hard silk thread drawing and the common carotid artery is tied thereby on the near side of the hard silk thread, and the hard silk thread is then removed. The breath is sutured at two points with a soft silk thread. In the case of the model of transient middle cerebral artery occlusion (tMCAO) of the present problem, anesthesia was applied to the mice with 3% isoflurane again after an hour or 4 hours on a constant-temperature table at 37° C., and the soft silk thread suturing the breath is untied to open the breath. The soft silk thread tying the internal carotid artery was loosened and the obturator was withdrawn, and the internal carotid artery was immediately tied again.
Data set [4] concerns model mice of cerebral ischemia (tMCAO). Description: tMCAO (ischemia for an hour, reperfusion) model, clinical scores of motor dysfunction. The format is in vivo, mouse. The settings on record: for protective effect on motor dysfunction: i.v. after an hour after ischemia, 1 to 10 mg/kg. The method, then: The model mice of cerebral ischemia produced by left middle cerebral artery occlusion in C57BL/J6 mice were maintained for an hour, followed by reperfusion. P30 (1 mg/kg or 3 mg/kg) or P6 (1 mg/kg) was administered into the caudal vein after an hour of reperfusion. Thereafter, the course of the mice was observed every 24 hours to evaluate motor function and existence. The clinical scores showing motor dysfunction are evaluated using the following five grades: 1: unable to completely extend the right front limb, 2: clockwise circling behavior, 3: unable to hold the position and incline to the right, 4: disappearance of spontaneous movement, and 5: death.
In FIG. 5, the data indicated by white squire indicate values when 0.1% DMSO in PBS (vehicle) was administered into the caudal vein in an amount of 100 μl/10 g after an hour of tMCAO for an hour. […] Black circle and black rhombus in the upper graph indicate the results of 1 mg/kg and 3 mg/kg P30 intravenous (i.v.) administration, respectively, and black circle in the lower graph indicates the results of 1 mg/kg P6 intravenous (i.v.) administration.
(§1) To evaluate the degree of motor function disorders associated with cerebral ischemia, the neurological scores (Clinical Scores) according to the following definition were used. In addition, two grade evaluation was carried out using numerical values 1 to 4 (when scores 1 and 2 were shown, 1.5 was used).
(§2) 1: motor function disorders of the right front limb, 2: one-directional behavior, 3: unable to hold the position and incline, 4: disappearance of spontaneous movement, and 5: death.

Data set [5] concerns tMCAO model (ischemia for 4 hours), tPA-induced motor dysfunction. Description: tMCAO for four hours with tPA: clinical score and mortality after a day. The settings on record: for death of mice: 10 mg/kg peptide with tPA after 4 hours of tMCAO ischemia. The format is in vivo, mouse. The method, then:
After tMCAO for four hours, the clinical score and mortality rate were evaluated after a day (FIG. 8). […] The tMCAO for four hours corresponds to the state after 3 hours from the onset of ischemic diseases.
as §1, §2

For data set [6], the system named is proMMP-9. Description: Gelatin zymography of proMMP-9 activity after retinal ischemia. The format is in vivo, mouse. The settings on record: 1 pmol. The text has this: It is known that a tight junction protein, occluding, is degraded by metalloproteinases (MMP) whose expression is increased by ischemia (J Cereb Blood Flow Metab, 2007. 27(4): p. 697-709). It is believed that MMP-9, in particular, plays a primary role in a failure of a blood-organ barrier by ischemia (J Cereb Blood Flow Metab, 2000. 20(12): p. 1681-9).
The expression level of MMP-9 is commonly low and the expression is derived by various stimuli by ischemia.

[7] abbreviates: peptide in combination with tPA, peptide dose not given.
Where [8] appears, read: second Example 13, peptide in combination with tPA, peptide dose not given.

For “Peptide S: P6 derivative peptide (EEVDEE)”, the “damaged cerebral region by TTC staining” value in data set [1] (setting [7]) was determined as 51±5.7%. Besides, the Clinical score in data set [2] (setting [8]) stood at 1.1±0.2.

“pEEVNEE (not fully specified (residue 1); listed as Homo sapiens) [Peptide B]”: in data set [1] (setting [7]), the “damaged cerebral region by TTC staining” value is recorded as 42±6.1%. Further, the tPA-induced cerebral hemorrhage result in data set [3] (10 mg/kg peptide coadministered with tPA) is on record as “did not have an influence”. In addition, the “protective effect on motor dysfunction” value in data set [4] is listed as “dose-dependently protective effect on motor dysfunction; also recorded: high protective activity”. In addition, the “dose showing the (greatest) protective effect on motor dysfunction” value in data set [4] (i.v., tMCAO 60 min ischemia) turned out to be 10 mg/kg. Also, the “tPA-induced exacerbation of motor dysfunction” value in data set [5] (10 mg/kg peptide coadministered i.v. with tPA, 24 hours after ischemia) is listed as “tended to inhibit”. In addition, the Clinical score in data set [2] (setting [8]) was determined as 1±0.

Take “Peptide Q: P6 derivative peptide (EEVDQE)”: in data set [1] (setting [7]), the “damaged cerebral region by TTC staining” value came out at 55±1.4%. Moreover, the Clinical score in data set [2] (setting [8]) amounted to 1.7±0.5.

For the substance “Peptide R: P6 derivative peptide (EEVDQE)”, the “damaged cerebral region by TTC staining” value in data set [1] (setting [7]) is 54±4.5%. Further, the Clinical score in data set [2] (setting [8]) stood at 1.1±0.1.

Regarding “pEEVDEE (not fully specified (residue 1); listed as Homo sapiens) [Peptide D]”, in data set [1] (setting [7]), the “damaged cerebral region by TTC staining” value is given as 52±7.2%. Moreover, in data set [4], the “protective effect on motor dysfunction” value is “not as good as that of Peptide A and Peptide B”. For the same substance, in data set [5], the death of mice entry was “all mice were died”. Further, the Clinical score in data set [2] (setting [8]) worked out at 1±0.

On to “Peptide L: P6 derivative peptide (NEIDEE)”, for which the “damaged cerebral region by TTC staining” value in data set [1] (setting [7]) was 46±5.6%. In addition, the Clinical score in data set [2] (setting [8]) is on record as 1.3±0.2.

Consider “tPA: thrombolytic agent, tissue plasminogen activator, purchased from Kyowa Hakko Kirin Co., Ltd. [reference compound]”, for which the “damaged cerebral region by TTC staining” value in data set [1] (tPA alone after 6 hours of PIT treatment) stood at 44±2.6%. For the same substance, the “protective effect (infarct region)” value is “the protective effect was not confirmed” in data set [1] (tPA administered after 6 hours of ischemia) and “protective effect was reduced” in data set [1] (tPA treatment time delayed (2 to 4 hours)). For the same substance, the infarct region result in data set [1] (tPA treatment after an hour after thrombus formation) is listed as “significant decrease in the infarct region”. Further, the hemorrhagic region in data set [3] (mouse, in vivo, iv, 10 mg/kg) turned out to be 0.7±0.2 mm^2. Further, the “mortality rate after a day of ischemia” value in data set [5] (10 mg/kg tPA alone) came to 35.7%. In addition, the “motor dysfunction (clinical score) after a day” value in data set [5] (10 mg/kg tPA alone, immediately before reperfusion) is reported as “deteriorated”. For the same substance, the “motor dysfunction score after a day” value in data set [5] (10 mg/kg tPA treatment, tMCAO ischemia for 4 hours, score 2 without tPA) came out at 3.5. The Clinical score in data set [2] (Example 12, tPA-alone after 6 hours of PIT treatment) is 1.5±0.2; in data set [2] (second Example 13, tPA alone after 6 hours of PIT treatment), 1.4±0.1.

For the substance NEVDQE [Peptide A, NEVDQE], the “hemorrhage in the cerebral cortex region” value turned out to be 0.09±0.01 mm^2 in data set [3] (mouse, in vivo, iv, 1 mg/kg); 0.06±0.01 mm^2 in data set [3] (mouse, in vivo, iv, 3 mg/kg); 0.08±0.01 mm^2 in data set [3] (mouse, in vivo, iv, 10 mg/kg).

Turning to NEVDEE [Peptide P6, NEVDEE], the cerebral hemorrhage result in data set [3] (mouse, in vivo) is given as “trend to exacerbate cerebral hemorrhage”.

Regarding “Ac-NEVDEE-NH2 [Peptide F, N-acetyl-P6-amide]”, the “increase in activity of proMMP-9 by ischemia” value in data set [6] is “effect equal to that of P6”. Further, the Clinical score in data set [2] (setting [8]) was 1.2±0.2.

As for “Peptide P: P6 derivative peptide (EEVNEE)”, in data set [1] (setting [7]), the “damaged cerebral region by TTC staining” value amounted to 47±5.1%. In addition, the Clinical score in data set [2] (setting [8]) is given as 1.1±0.1.

Regarding NEVDEE-NH2 [Peptide E, NEVDEE-NH2], the death of mice result in data set [5] is “all mice were died”.
